In the test the target is T1, HMG-CoA reductase (Homo sapiens, UniProt P04035).
T1 construct: gene HMGCR; catalytic domain of the human enzyme (recombinant GST fusion protein expressed in E. coli)
T1 sequence (P04035 426-888 limits assumed): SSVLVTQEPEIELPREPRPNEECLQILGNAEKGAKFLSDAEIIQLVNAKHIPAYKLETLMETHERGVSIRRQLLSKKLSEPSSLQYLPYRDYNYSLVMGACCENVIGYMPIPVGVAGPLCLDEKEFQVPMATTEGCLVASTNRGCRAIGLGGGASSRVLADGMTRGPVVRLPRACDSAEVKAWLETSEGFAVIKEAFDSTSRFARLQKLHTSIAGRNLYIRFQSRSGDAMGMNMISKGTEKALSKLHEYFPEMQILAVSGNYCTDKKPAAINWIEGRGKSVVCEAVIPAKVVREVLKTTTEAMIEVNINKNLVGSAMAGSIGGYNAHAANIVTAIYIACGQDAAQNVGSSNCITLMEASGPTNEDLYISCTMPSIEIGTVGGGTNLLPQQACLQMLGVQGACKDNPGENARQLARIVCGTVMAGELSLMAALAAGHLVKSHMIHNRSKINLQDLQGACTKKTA
Kind of test: spectrophotometric HMG-CoA reductase assay; Lineweaver-Burk and Dixon plots. The class given is biochemical.

The record followed here is publication PMC4352280, “Bioactivity guided fractionation and hypolipidemic property of a novel HMG-CoA reductase inhibitor from Ficus virens Ait” (Lipids in Health and Disease, 2015).

pIC50: −log10 of the molar value.

The term pIC50 denotes −log10 of the IC50, conventionally taken in molar units. Low readings indicate a high IC50, high ones a low IC50.

With `CCCCCCCCCCCCCCCCCCO[C@H]1O[C@H](CO[C@H]2O[C@H](CO)[C@@H](O)[C@H](O)[C@H]2O)[C@@H](O)[C@H](O)[C@H]1O` [F18, n-Octadecanyl-O-α-D-glucopyranosyl(6′ → 1″)-O-α-D-glucopyranoside], the pIC50 was 6.85.
